Some test systems named below: 786-0 renal; SF-295 CNS; T-47D breast; SN12C renal; KM12 colon; SF-268 CNS; IGROV1 ovarian; BT-549 breast; UACC-257 melanoma; SNB-19 CNS; HCT-116 colon; UACC-62 melanoma; K-562 leukemia; ACHN renal; CAKI-1 renal; SR leukemia; NCI-H23 lung.
Holding throughout (assay): growth of human tumour cells (NCI), 48 h

The source of these data is PubChem BioAssay (NCI).

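Each compound was tested at five concentrations against cells in 96-well plates for 48 hours. TGI denotes the concentration required for complete inhibition of growth.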

For the compound `COc1ccc(-c2nc(N(C)C)c3ccccc3n2)cc1`, the TGI in the assay on 786-0 renal was 32.3 µM; in the assay with SF-295 CNS, 46.3 µM; with T-47D breast, 49.1 µM; with SN12C renal, 39.8 µM; in the assay on KM12 colon, 68.8 µM; with SF-268 CNS, 99.3 µM. Further, the TGI in the assay with IGROV1 ovarian was above 100 µM; with BT-549 breast it was 43.5 µM; with UACC-257 melanoma, 32.6 µM; in the assay with SNB-19 CNS it was above 100 µM; with HCT-116 colon it was 17.4 µM; in the assay with UACC-62 melanoma it was 37.6 µM. Also, the TGI with K-562 leukemia is 40.7 µM; in the assay with ACHN renal, 53.5 µM; in the assay on CAKI-1 renal, above 100 µM; with SR leukemia, 29.1 µM; with NCI-H23 lung it was 69 µM.

On to `COc1ccc(OC)c(C2CCCc3c2cnc2nc(N)nc(N)c32)c1` (stereo not drawn), for which the TGI in the assay on 786-0 renal, with SF-295 CNS, in the assay on T-47D breast, in the assay with SN12C renal, in the assay with KM12 colon and with SF-268 CNS was above 100 µM in each case. Besides, the TGI with IGROV1 ovarian, in the assay on BT-549 breast, with UACC-257 melanoma, in the assay on SNB-19 CNS, in the assay with HCT-116 colon and in the assay on UACC-62 melanoma was above 100 µM in each case. Besides, the TGI in the assay on K-562 leukemia, in the assay with ACHN renal, in the assay on CAKI-1 renal, in the assay on SR leukemia and with NCI-H23 lung was above 100 µM each time.

For the compound `C/C(=N\Nc1nc2ccccc2[nH]1)c1ccncn1`, the TGI with 786-0 renal is above 100 µM; in the assay with SF-295 CNS it was above 44.6 µM; in the assay on T-47D breast it was above 100 µM; with SN12C renal, 10.2 µM; in the assay with KM12 colon, 35.9 µM; with IGROV1 ovarian, 43.8 µM. In addition, the TGI with BT-549 breast was above 100 µM; in the assay with UACC-257 melanoma it was above 31.6 µM; in the assay with SNB-19 CNS, above 100 µM; in the assay on HCT-116 colon, 26.8 µM; in the assay with K-562 leukemia, above 100 µM; in the assay on ACHN renal, 0.986 µM. The TGI in the assay with CAKI-1 renal is above 49 µM; with SR leukemia it was above 100 µM; with NCI-H23 lung, above 33.3 µM.

In the case of `SC[C@@H]1COC[C@H](CS)S1`, the TGI in the assay with 786-0 renal, with SF-295 CNS, in the assay on T-47D breast, with SN12C renal, in the assay on KM12 colon and in the assay on SF-268 CNS was above 100 µM each time. Also, the TGI with IGROV1 ovarian, in the assay with BT-549 breast, in the assay with UACC-257 melanoma, in the assay with SNB-19 CNS, in the assay with HCT-116 colon and in the assay on UACC-62 melanoma was above 100 µM each time. Also, the TGI with K-562 leukemia, in the assay with SR leukemia and with NCI-H23 lung was above 100 µM in each case.

As to `COC(=O)c1cc(C)n2c1CS[C@@H]2c1ccccc1`, the TGI with 786-0 renal was above 100 µM; in the assay on SF-295 CNS, above 100 µM; in the assay with T-47D breast, 93.1 µM; in the assay with SN12C renal it was above 100 µM; in the assay with KM12 colon, above 100 µM; in the assay on SF-268 CNS it was above 100 µM. Moreover, the TGI with IGROV1 ovarian is above 100 µM; in the assay with BT-549 breast it was 82.8 µM; with UACC-257 melanoma it was above 100 µM; in the assay on SNB-19 CNS, above 100 µM; with HCT-116 colon, above 100 µM; in the assay with K-562 leukemia, above 100 µM. Moreover, the TGI was above 100 µM with ACHN renal, above 100 µM in the assay with CAKI-1 renal, 54.6 µM in the assay with SR leukemia and above 100 µM in the assay with NCI-H23 lung.

Take `COc1cc(C2SCC(=O)N2c2ccc(-c3ccc(-n4c(-c5ccccc5)nc5ccccc5c4=O)cc3)cc2)ccc1O` (stereo not drawn): the TGI was above 100 µM with 786-0 renal; above 100 µM in the assay with SF-295 CNS; 71.5 µM in the assay with T-47D breast; above 100 µM with SN12C renal; above 100 µM in the assay on KM12 colon; above 100 µM in the assay on SF-268 CNS. Besides, the TGI in the assay with IGROV1 ovarian, in the assay with BT-549 breast, in the assay on UACC-257 melanoma, in the assay with SNB-19 CNS, in the assay with HCT-116 colon and with UACC-62 melanoma was above 100 µM each time. In addition, the TGI in the assay with K-562 leukemia, in the assay with ACHN renal, in the assay with CAKI-1 renal and in the assay on NCI-H23 lung was above 100 µM throughout.

Consider `COC(=O)C(/C(=N/N)C(=O)Nc1ccc(C)c(C)c1)c1nc2ccc(Cl)cc2[nH]c1=O` (stereo not drawn), for which the TGI with 786-0 renal, in the assay on SF-295 CNS, in the assay with T-47D breast, in the assay with SN12C renal, in the assay on KM12 colon and with SF-268 CNS was above 100 µM throughout. Besides, the TGI with IGROV1 ovarian, with BT-549 breast, with UACC-257 melanoma, in the assay on HCT-116 colon, with UACC-62 melanoma and in the assay with K-562 leukemia was above 100 µM throughout. Moreover, the TGI in the assay with ACHN renal, in the assay on CAKI-1 renal, in the assay with SR leukemia and with NCI-H23 lung was above 100 µM each time.

As for `O=C(CC(=O)N(C(=O)c1ccccc1)c1ccc(Cl)cc1)N/N=C\c1ccccc1O`, the TGI was above 100 µM with 786-0 renal; 80.9 µM in the assay on SF-295 CNS; above 100 µM with T-47D breast; above 100 µM in the assay with SN12C renal; above 100 µM in the assay with KM12 colon; above 100 µM in the assay with SF-268 CNS. The TGI with IGROV1 ovarian, in the assay on BT-549 breast, with UACC-257 melanoma, in the assay with SNB-19 CNS, with HCT-116 colon and with K-562 leukemia was above 100 µM in each case. Besides, the TGI in the assay with ACHN renal, with CAKI-1 renal, with SR leukemia and with NCI-H23 lung was above 100 µM each time.
